According to BigSolDB 2.1:

With `O=C(Nc1ccc(Cl)cc1)Nc1ccc(Cl)c(Cl)c1` the solubility (mole fraction) (in 1,4-dioxane, 288.15 K) was 0.00103, the solubility (mole fraction) (in 1,4-dioxane, 293.15 K) was 0.00176 and the solubility (mole fraction) (in 1,4-dioxane, 298.15 K) was 0.00239. It also gave a solubility (mole fraction) (in 1,4-dioxane, 303.15 K) of 0.00403, a solubility (mole fraction) (in 1,4-dioxane, 308.15 K) of 0.00658 and a solubility (mole fraction) (in 1,4-dioxane, 313.15 K) of 0.00931. For the same compound, the solubility (mole fraction) (in 1,4-dioxane, 318.15 K) was 0.0141, the solubility (mole fraction) (in cyclohexane, 288.15 K) was 1.68e-07 and the solubility (mole fraction) (in cyclohexane, 293.15 K) was 2.73e-07. It also gave a solubility (mole fraction) (in cyclohexane, 298.15 K) of 4.23e-07, a solubility (mole fraction) (in cyclohexane, 303.15 K) of 7.31e-07 and a solubility (mole fraction) (in cyclohexane, 308.15 K) of 1.17e-06. It also gave a solubility (mole fraction) (in cyclohexane, 313.15 K) of 1.82e-06 and a solubility (mole fraction) (in cyclohexane, 318.15 K) of 2.72e-06.
